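A five-concentration, 48-hour dose response in 96-well plates underlies each endpoint, interpolated linearly between surrounding concentrations. Abbreviation: GI50, concentration required for 50% inhibition of growth. TGI: concentration producing complete growth inhibition.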
What was measured:
Test in all cases: growth of human tumour cells (NCI), 48 h
OVCAR-5 ovarian = system: OVCAR-5 ovarian
NCI-H226 lung = system: NCI-H226 lung
ACHN renal = system: ACHN renal
SK-MEL-28 melanoma = system: SK-MEL-28 melanoma
NCI/ADR-RES ovarian = system: NCI/ADR-RES ovarian
SNB-19 CNS = system: SNB-19 CNS
SK-OV-3 ovarian = system: SK-OV-3 ovarian
HCC-2998 colon = system: HCC-2998 colon
DU-145 prostate = system: DU-145 prostate
U251 CNS = system: U251 CNS

SMILES	TGI (OVCAR-5 ovarian) [µM]	TGI (NCI-H226 lung) [µM]	TGI (ACHN renal) [µM]	TGI (SK-MEL-28 melanoma) [µM]	TGI (NCI/ADR-RES ovarian) [µM]	TGI (SNB-19 CNS) [µM]	TGI (SK-OV-3 ovarian) [µM]	TGI (HCC-2998 colon) [µM]	TGI (DU-145 prostate) [µM]	TGI (U251 CNS) [µM]	GI50 (OVCAR-5 ovarian) [µM]	GI50 (NCI-H226 lung) [µM]	GI50 (ACHN renal) [µM]	GI50 (SK-MEL-28 melanoma) [µM]	GI50 (NCI/ADR-RES ovarian) [µM]	GI50 (SNB-19 CNS) [µM]	GI50 (SK-OV-3 ovarian) [µM]	GI50 (HCC-2998 colon) [µM]	GI50 (DU-145 prostate) [µM]	GI50 (U251 CNS) [µM]
CN(C)N1C(=O)C(=O)N(c2cccc3ccccc23)C1=O	> 10	> 10	> 10	> 10	> 10	> 10	> 10	> 10	> 10	> 10										
CCO/N=C\c1ccc2oc(-c3ccccc3)cc(=O)c2c1	40	7.01	37.2	> 100	0.436	19.8	24	6.08	13.3	17.6										
CCC1c2[nH]c3ccccc3c2C[C@H]2C(=O)NC(C)C(=O)N12 (stereo not given in full)	> 100	> 100	> 100	> 100	> 100	> 100	> 100	> 100	> 100	> 100										
O=C(CCCc1cccc2[nH]c3c(c12)CN(Cc1ccccc1)CC3)c1ccc(F)cc1	> 100	> 100	> 100	> 100	> 100	> 100	> 100	38.5	> 100	> 100										
Cc1ccc(C(=O)Nc2ccc(S(=O)(=O)O)c3cc(S(=O)(=O)O)cc(S(=O)(=O)O)c23)cc1NC(=O)c1cccc(NC(=O)Nc2cccc(C(=O)Nc3cc(C(=O)Nc4ccc(S(=O)(=O)O)c5cc(S(=O)(=O)O)cc(S(=O)(=O)O)c45)ccc3C)c2)c1	> 100	> 89.4	> 100	> 100	> 100	> 100	> 100	> 100	> 100	> 100										
O=C1CCCC2=C1CC1=C(CCCC1=O)N2c1ccc(Cl)cc1	> 100	> 100	> 100	> 100	> 100	> 100	> 100	> 100	> 100	> 100										
COC(=O)[C@@]12CSC[C@]1(C(=O)OC)N[C@@H](c1ccccc1O)C2	> 100	> 100	> 100	> 100	> 100	> 100	> 100	> 100	> 100	> 100										
NCCCn1c(Cl)nc2ccccc21	> 100	> 100	> 100	> 100	> 100	> 100	> 100	> 100	> 100	> 100										
O=C1c2c(c3c4cc(F)ccc4oc3c3[nH]c4ccccc4c23)C(=O)N1O	> 100	73.8	1.73	> 100	> 100	24.9	19.6	> 100	> 100	13.4	38.2	3.85	0.398	2.89	2.9	1.79	2.48	2.53	2.15	0.904
C(=N\NC1=NCCCCN1)/c1ccc2ccccc2c1	76.7	66.1	> 100	40.4	> 100	> 100	> 100	30.3	> 100	58.6										
CCOC(CBr)OC1C(=O)OCC1(C)C (stereo not given)	> 100	> 100	> 100	> 100	> 100	> 100	> 100	> 100	> 100	> 100										
CCOC(=O)NC(Nc1ccc(F)cc1F)(C(F)(F)F)C(F)(F)F	> 100	> 100	> 100	> 100	> 100	> 100	> 100	> 100	> 100	> 100										

Source: PubChem BioAssay (NCI)
